Laboratory results as given in the supplement of paper PMC4862054.

Columns and labels:
Conditions in all cases: 72 h
HDQ-P1 [1] = tested on: HDQ-P1
How it was run: (§1)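 The reported EC50 was fitted from percent-inhibition dose-response curves and censored at the highest concentration. Breast cancer cell lines (20 µl suspension) were added to 384-well plates containing compound in 5 µl medium and incubated 72 h, and viability was read with 2.5 µl CellTiter-Blue over 2 h at 37 °C at 560/590 nm. Each plate was normalised to vehicle and a positive kill control and checked by Z'-factor, and rows with zero drug sensitivity score were dropped.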

MDA-MB-453 [2] = tested on: MDA-MB-453
How it was run: as §1

CAL-85-1 [3] = tested on: CAL-85-1
How it was run: as §1

SK-BR-3 [4] = tested on: SK-BR-3
How it was run: as §1

BT-474 [5] = tested on: BT-474
How it was run: as §1

MDA-MB-468 [6] = tested on: MDA-MB-468
How it was run: as §1

DU-4475 [7] = tested on: DU-4475
How it was run: as §1

CAL-51 [8] = tested on: CAL-51
How it was run: as §1

CAL-120 [9] = tested on: CAL-120
How it was run: as §1

HCC1599 [10] = tested on: HCC1599
How it was run: as §1

MDA-MB-231 [11] = tested on: MDA-MB-231
How it was run: as §1

HCC1143 [12] = tested on: HCC1143
How it was run: as §1

CAL-120 [13] = tested on: CAL-120; remark: listed apart in the source
How it was run: (§2)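 Seeding of breast cancer cell lines (20 µl suspension) was done into 384-well plates pre-loaded with compound at 5 concentrations, 10-fold apart, covering a compound-specific 10,000-fold range. The plates were incubated for 72 h, read for CellTox Green fluorescence (485/520 nm), and then read for CellTiter-Glo luminescence after 10 min at room temperature. Every plate was normalised to 0.1 % DMSO and a positive kill control. Curve fitting gave the EC50, censored at the top concentration.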

BT-474 [14] = tested on: BT-474; remark: listed apart in the source
How it was run: as §2

CAL-51 [15] = tested on: CAL-51; remark: listed apart in the source
How it was run: as §2

MDA-MB-468 [16] = tested on: MDA-MB-468; remark: listed apart in the source
How it was run: as §2

Hs578T [17] = tested on: Hs578T
How it was run: as §1

HCC1937 = tested on: HCC1937
How it was run: as §1

MDA-MB-436 [18] = tested on: MDA-MB-436
How it was run: as §1

CAL-120 [19] = tested on: CAL-120; remark: listed apart in the source
Method: (§3)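 Drug sensitivity and resistance testing (DSRT) of breast cancer cell lines in 384-well plates, 5 concentrations in 10-fold dilutions over a compound-specific 10,000-fold range. After 72 h, cytotoxicity was read by CellTox Green fluorescence and viability by CellTiter-Glo luminescence (multiplexed), normalised to DMSO and benzethonium chloride controls. EC50 is the inflection point of the fitted dose-response curve (bottom asymptote free, so it can be relative for partial curves) and is censored at the highest tested concentration. Rows with DSS 0 (no meaningful response) were excluded.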

Hs578T [20] = tested on: Hs578T; remark: listed apart in the source
Method: as §3

MCF-10A [21] = tested on: MCF-10A
Method: as §3

CAL-51 [22] = tested on: CAL-51; remark: listed apart in the source
Method: as §3

CAL-85-1 [23] = tested on: CAL-85-1; remark: listed apart in the source
Method: as §3

MDA-MB-231 [24] = tested on: MDA-MB-231; remark: listed apart in the source
Method: as §3

MFM-223 [25] = tested on: MFM-223
Method: as §3

CAL-148 [26] = tested on: CAL-148
How it was run: as §1

SK-BR-3 [27] = tested on: SK-BR-3; remark: listed apart in the source
How it was run: as §2

CAL-148 [28] = tested on: CAL-148; remark: listed apart in the source
How it was run: as §2

HDQ-P1 [29] = tested on: HDQ-P1; remark: listed apart in the source
How it was run: as §2

HCC1599 [30] = tested on: HCC1599; remark: listed apart in the source
How it was run: as §2

Hs578T [31] = tested on: Hs578T; remark: listed apart in the source
How it was run: as §2

MDA-MB-453 [32] = tested on: MDA-MB-453; remark: listed apart in the source
How it was run: as §2

MCF-10A [33] = tested on: MCF-10A; remark: listed apart in the source
How it was run: as §2

DU-4475 [34] = tested on: DU-4475; remark: listed apart in the source
How it was run: as §2

CAL-85-1 [35] = tested on: CAL-85-1; remark: listed apart in the source
How it was run: as §2

MDA-MB-436 [36] = tested on: MDA-MB-436; remark: listed apart in the source
How it was run: as §2

BT-549 [37] = tested on: BT-549
How it was run: as §2

MDA-MB-231 [38] = tested on: MDA-MB-231; remark: listed apart in the source
How it was run: as §2

HCC1143 [39] = tested on: HCC1143; remark: listed apart in the source
How it was run: as §2

MFM-223 [40] = tested on: MFM-223; remark: listed apart in the source
How it was run: as §2

BT-549 [41] = tested on: BT-549; remark: listed apart in the source
How it was run: as §1

MFM-223 [42] = tested on: MFM-223; remark: listed apart in the source
How it was run: as §1

SMILES: C=CC(=O)N1CCC[C@@H](n2nc(-c3ccc(Oc4ccccc4)cc3)c3c(N)ncnc32)C1
- EC50, CellTiter-Blue viability (HDQ-P1 [1]): 407 nM
- EC50, CellTiter-Blue viability (MDA-MB-453 [2]): 18.5 nM
- EC50, CellTiter-Blue viability (CAL-85-1 [3]): 849 nM
- EC50, CellTiter-Blue viability (SK-BR-3 [4]): 8.82 nM
- EC50, CellTiter-Blue viability (BT-474 [5]): 14.7 nM
- EC50, CellTiter-Blue viability (MDA-MB-468 [6]): 71.1 nM

SMILES: CC(=O)Nc1cccc(-n2c(=O)n(C3CC3)c(=O)c3c(Nc4ccc(I)cc4F)n(C)c(=O)c(C)c32)c1
- EC50, CellTiter-Blue viability (HDQ-P1 [1]): 4.17 nM
- EC50, CellTiter-Blue viability (MDA-MB-453 [2]): 20.2 nM
- EC50, CellTiter-Blue viability (DU-4475 [7]): 0.91 nM
- EC50, CellTiter-Blue viability (CAL-51 [8]): 9.94 nM
- EC50, CellTiter-Blue viability (CAL-85-1 [3]): 19.4 nM
- EC50, CellTiter-Blue viability (CAL-120 [9]): 20.6 nM
- EC50, CellTiter-Blue viability (HCC1599 [10]): 31.5 nM
- EC50, CellTiter-Blue viability (MDA-MB-231 [11]): 1.8 nM
- EC50, CellTiter-Blue viability (MDA-MB-468 [6]): 35.7 nM
- EC50, CellTiter-Blue viability (HCC1143 [12]): 2.92 nM

SMILES: CCc1cncnc1N1CCN(Cc2nc3ccc(C(F)(F)F)cc3[nH]2)CC1
- EC50, CellTiter-Glo (CAL-120 [13]): > 10000 nM
- EC50, CellTiter-Glo (BT-474 [14]): > 10000 nM
- EC50, CellTiter-Glo (CAL-51 [15]): 543 nM
- EC50, CellTiter-Glo (MDA-MB-468 [16]): 1350 nM

SMILES: Cc1cnc(NC(=O)Nc2cc(Br)c(C)cc2OC[C@@H]2CNCCO2)cn1
- EC50, CellTiter-Blue viability (SK-BR-3 [4]): 715 nM
- EC50, CellTiter-Blue viability (HCC1599 [10]): 221 nM
- EC50, CellTiter-Blue viability (Hs578T [17]): 745 nM
- EC50, CellTiter-Blue viability (HCC1937): 121 nM
- EC50, CellTiter-Blue viability (MDA-MB-436 [18]): 98.7 nM

SMILES: NCCCNCCSP(=O)(O)O [Amifostine]
- EC50, CellTiter-Blue viability (HCC1599 [10]): 224 nM

SMILES: CC[C@@H]1C(=O)N(C)c2cnc(Nc3ccc(C(=O)NC4CCN(C)CC4)cc3OC)nc2N1C1CCCC1 [BI 2536]
- EC50, CellTox Green (CAL-120 [19]): 120 nM
- EC50, CellTox Green (Hs578T [20]): 419 nM
- EC50, CellTox Green (MCF-10A [21]): 2.65 nM
- EC50, CellTox Green (CAL-51 [22]): 5.72 nM
- EC50, CellTox Green (CAL-85-1 [23]): 24.1 nM
- EC50, CellTox Green (MDA-MB-231 [24]): 2.26 nM
- EC50, CellTox Green (MFM-223 [25]): 2.41 nM
- EC50, CellTiter-Blue viability (CAL-148 [26]): 4.74 nM
- EC50, CellTiter-Blue viability (HDQ-P1 [1]): > 1000 nM
- EC50, CellTiter-Blue viability (MDA-MB-453 [2]): 2.09 nM
- EC50, CellTiter-Blue viability (DU-4475 [7]): 6.01 nM
- EC50, CellTiter-Blue viability (CAL-51 [8]): 12.5 nM
- EC50, CellTiter-Blue viability (CAL-85-1 [3]): 2.85 nM
- EC50, CellTiter-Glo (CAL-120 [13]): 5.9 nM
- EC50, CellTiter-Glo (SK-BR-3 [27]): 2.39 nM
- EC50, CellTiter-Glo (CAL-148 [28]): 3.14 nM
- EC50, CellTiter-Glo (HDQ-P1 [29]): 21.4 nM
- EC50, CellTiter-Glo (HCC1599 [30]): 37.2 nM
- EC50, CellTiter-Glo (Hs578T [31]): 31.6 nM
- EC50, CellTiter-Glo (MDA-MB-453 [32]): 2.55 nM
- EC50, CellTiter-Glo (MCF-10A [33]): 34 nM
- EC50, CellTiter-Glo (BT-474 [14]): 6.44 nM
- EC50, CellTiter-Glo (DU-4475 [34]): 10.2 nM
- EC50, CellTiter-Glo (CAL-51 [15]): 10.9 nM
- EC50, CellTiter-Glo (CAL-85-1 [35]): 2.42 nM
- EC50, CellTiter-Glo (MDA-MB-436 [36]): 2.44 nM
- EC50, CellTiter-Glo (BT-549 [37]): 4.82 nM
- EC50, CellTiter-Glo (MDA-MB-231 [38]): 2.75 nM
- EC50, CellTiter-Glo (MDA-MB-468 [16]): 2.04 nM
- EC50, CellTiter-Glo (HCC1143 [39]): 6.01 nM
- EC50, CellTiter-Glo (MFM-223 [40]): 2.27 nM
- EC50, CellTiter-Blue viability (CAL-120 [9]): 3.52 nM
- EC50, CellTiter-Blue viability (SK-BR-3 [4]): 2.63 nM
- EC50, CellTiter-Blue viability (Hs578T [17]): 10.5 nM
- EC50, CellTiter-Blue viability (HCC1937): 3.79 nM
- EC50, CellTiter-Blue viability (MDA-MB-436 [18]): 3.72 nM
- EC50, CellTiter-Blue viability (BT-549 [41]): 1.56 nM
- EC50, CellTiter-Blue viability (MDA-MB-231 [11]): 5.71 nM
- EC50, CellTiter-Blue viability (MDA-MB-468 [6]): 3.48 nM
- EC50, CellTiter-Blue viability (HCC1143 [12]): 6.32 nM
- EC50, CellTiter-Blue viability (MFM-223 [42]): 1.57 nM

SMILES: CC[C@H](Nc1ncnc2[nH]cnc12)c1nc2cccc(F)c2c(=O)n1-c1ccccc1 [CAL-101]
- EC50, CellTiter-Blue viability (HDQ-P1 [1]): 5250 nM
- EC50, CellTiter-Blue viability (MDA-MB-453 [2]): 2180 nM
- EC50, CellTiter-Blue viability (DU-4475 [7]): 5560 nM
- EC50, CellTiter-Blue viability (CAL-120 [9]): 8280 nM
- EC50, CellTiter-Blue viability (SK-BR-3 [4]): 2160 nM
- EC50, CellTiter-Blue viability (HCC1599 [10]): 94.2 nM
- EC50, CellTiter-Blue viability (BT-549 [41]): 2240 nM
- EC50, CellTiter-Blue viability (MDA-MB-468 [6]): 2380 nM
- EC50, CellTiter-Blue viability (HCC1143 [12]): 2280 nM

SMILES: O=C(O)CCCCC(CCSCc1ccccc1)SCc1ccccc1 (configuration not stated) [CPI-613]
- EC50, CellTox Green (CAL-85-1 [23]): > 10000 nM

SMILES: O=C(O)C1(C(=O)O)CCC1.[NH2-].[NH2-].[Pt+2] [Carboplatin]
- EC50, CellTiter-Blue viability (CAL-148 [26]): 5150 nM
- EC50, CellTiter-Blue viability (MDA-MB-453 [2]): 7350 nM
- EC50, CellTiter-Blue viability (CAL-51 [8]): 9460 nM
- EC50, CellTiter-Blue viability (MFM-223 [42]): 9690 nM

SMILES: COc1cc2c(Oc3ccc4[nH]c(C)cc4c3F)ncnc2cc1OCCCN1CCCC1 [Cediranib]
- EC50, CellTiter-Glo (MFM-223 [40]): 338 nM
